Data as given in patent US20060052248A1, “Use of a substance with oxytocin activity in order to stimulate plant growth” (priority 2001, published 2006).

Legend:
Format in all cases: in vivo
[1] = system: winter wheat (Triticum sativum); assay: Germination test, winter wheat seeds
Description: (§1) Statistical analysis was performed by means of 2-way ANOVA followed by Bonferoni's test for post hoc comparison. Results are given as mean values. Differences in the number of germinated seeds, coleoptile length, root length (Example 1) and growth of lettuce (Example 2) were assessed by Student's t-test for independent means. Results were considered significant when p<0.05. In each of 10 Petri dishes with a diameter of 10 cm, 100 seeds of winter wheat (Triticum sativum) are placed together with two filter papers. To five of the Petri dishes is added 4.5 ml of a 1 μg/ml aqueous solution of oxytocin. To the other five Petri dishes is added the same amount of tap water. All ten Petri dishes are placed in darkness for germination during fourteen days at a temperature of 18° C.

bent (Agrostis tenuis) = assay: Germination test, bent seeds
Description: as §1, with “seeds of bent (Agrostis tenuis) are placed” for “seeds of winter wheat (Triticum sativum) are placed”, “dishes are then placed in” for “dishes are placed in”

[2] = system: lettuce (Lactuca sativa), sort "Calgary"; assay: Growth test, lettuce in nutrient solution; settings: for Root, dm / Shoot, dm: dry weight/fresh weight; for Root length / Root, dw / Root, fw / Shoot, dw / Shoot, fw / Whole plant, dw / Whole plant, fw: harvest 21 days; for Shoot/root, dw / Shoot/root, fw: ratio
Description: Statistical analysis was performed by means of 2-way ANOVA followed by Bonferoni's test for post hoc comparison. Results are given as mean values. Differences in the number of germinated seeds, coleoptile length, root length (Example 1) and growth of lettuce (Example 2) were assessed by Student's t-test for independent means. Results were considered significant when p<0.05.
The plant used was lettuce (Lactuca sativa), sort “Calgary” and non-disinfected ecological seeds were used. In the same manner as in Example 1, 150 seeds are germinated in oxytocin solution and 150 seeds are germinated in tap water, in both cases in darkness.
After germination for six days, the germs are put into 1 litre test vessels with four germs per vessel. To ten vessels are added oxytocin treated germs and to ten other vessels are added germs treated with tap water, giving totally eighty plants. Each vessel contains 1 litre 300 μM calcium sulphate solution. Other nutrients were added on the first and third day and from day five until harvest, 21 days after transferring germs to vessels. Increasing volumes from a stock nutrient solution (24 mM potassium, 2.5 mM magnesium, 22.3 mM ammonium, 4 mM phosphorus, 46.9 mM nitrate, 1 mM chlorine and trace elements) were supplied to meet the immediate nutrient demand of plants with a relative growth rate of 20% day^−1. Three days after the transport of the germs to the vessels, 1 mg of oxytocin was added to half of the oxytocin treated germs and to half of the germs treated with tap water giving a oxytocin concentration of 1 μg/ml. The growth phase experiment was performed in a climate chamber with 14 hours illumination per day at a temperature of 18° C. at light and at a temperature of 14° C. in darkness.
Accordingly, the eighty plants have been treated as follows:
20 plants (5 vessels each having 4 plants)—treated with tap water during germination and growth (denoted −ox/−ox);
20 plants (5 vessels each having 4 plants)—treated with oxytocin solution during germination and with tap water during growth (denoted +ox/−ox);
20 plants (5 vessels each having 4 plants)—treated with tap water during germination and with oxytocin solution during growth (denoted −ox/+ox);
20 plants (5 vessels each having 4 plants)—treated with oxytocin solution during germination and growth (denoted +ox/+ox).

[3] = 1 μg/ml aqueous oxytocin, 14 days darkness, 18° C.
[4] = 100 seeds per dish, 1 μg/ml aqueous oxytocin, 14 days darkness, 18° C.
[5] = versus tap water, 1 μg/ml oxytocin
[6] = +ox/+ox: oxytocin during germination and growth
[7] = +ox/−ox: oxytocin during germination only
[8] = −ox/+ox: oxytocin 1 μg/ml during growth only

## oxytocin
[1]; [3]
  Coleoptile length: 27.4 mm
  Root length: 36.0 mm
[1]; [4]
  Germinated seeds (mean number): 97.0
[1]; [5]
  Effect on germination and growth of seeds (in words): increased the number of germinated seeds and stimulated the growth of seeds
Bent (Agrostis tenuis); [3]
  Coleoptile length: 39.1 mm
  Root length: 15.7 mm
Bent (Agrostis tenuis); [4]
  Germinated seeds (mean number): 9.8
Bent (Agrostis tenuis); [5]
  Effect on germination and growth of seeds (in words): only the increase in root length was significant
[2]; +ox/+ox: oxytocin available during the whole experiment period
  Root length compared with control (in words): inhibited
[2]; +ox/+ox: oxytocin during both germination and growth
  Growth compared with control (−ox/−ox) (in words): no effects compared with control
[2]; [6]
  Root, dm: 6.44b %
  Shoot, dm: 13.34b %
  Root length: 21.00b cm
  Root, dw: 0.126b g
  Root, fw: 1.94ab g
  Shoot, dw: 0.596b g
  Shoot, fw: 4.466a g
  Whole plant, dw: 0.721b g
  Whole plant, fw: 6.41ab g
  Shoot/root, dw: 4.76a
  Shoot/root, fw: 2.30a
[2]; +ox/−ox: oxytocin at germination
  Growth compared with control (−ox/−ox) (in words): significant increase in growth
[2]; [7]
  Root, dm: 7.03a %
  Shoot, dm: 14.06ab %
  Root length: 24.4a cm
  Root, dw: 0.141a g
  Root, fw: 2.03a g
  Shoot, dw: 0.641ab g
  Shoot, fw: 4.559a g
  Whole plant, dw: 0.782a g
  Whole plant, fw: 6.59a g
  Shoot/root, dw: 4.59a
  Shoot/root, fw: 2.24a
[2]; [8]
  Root, dm: 6.92ab %
  Shoot, dm: 14.55a %
  Root length: 23.6a cm
  Root, dw: 0.141a g
  Root, fw: 2.00a g
  Shoot, dw: 0.656a g
  Shoot, fw: 4.508a g
  Whole plant, dw: 0.797a g
  Whole plant, fw: 6.51ab g
  Shoot/root, dw: 4.67a
  Shoot/root, fw: 2.25a
[2]; −ox/+ox: oxytocin during growth in nutrient solution
  Growth compared with control (−ox/−ox) (in words): significant increase in growth
